Holding throughout (experiment): NCI-60 cell line screen, 48 h
Test [1] deals with 786-0 renal.
Test [2] deals with HCT-116 colon.
Test [3] deals with HOP-62 NSCLC.
The test system of test [4] is IGROV1 ovarian.
In test [5] the test system is MCF7 breast.
Test [6] has as its system MDA-MB-435.
Test [7] has as its system NCI-H460 lung.
The test system of test [8] is OVCAR-4 ovarian.
The test system of test [9] is OVCAR-5 ovarian.
Test [10] has as its system RXF 393 renal.
Test [11] has as its system SK-MEL-5 melanoma.
For test [12], the system named is SN12C renal.
Test [13] has as its system SNB-19 CNS.
Test [14] concerns SR leukemia.
In test [15] the test system is TK-10 renal.
Test [16] deals with CCRF-CEM leukemia.

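Method: 48-hour compound exposure of cells in 96-well plates, five concentrations, linear interpolation of endpoints. TGI denotes the concentration required for complete inhibition of growth.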

In the case of `O=C(CSCC(=O)N/N=C\c1ccc(-c2ccccc2)cc1)N/N=C\c1ccc(-c2ccccc2)cc1`, the TGI is over 100 µM in test [1]; 21.4 µM in test [2]; 51.9 µM in test [3]; 29.2 µM in test [4]; over 100 µM in test [5]; 46.1 µM in test [6]. The TGI in test [7] was over 100 µM; in test [8], 46.5 µM; in [9], 74.8 µM; in test [10], over 100 µM; in test [11], over 100 µM; in [12], 53.6 µM. For the same compound, the TGI in test [13] is over 100 µM; in test [14], 26.8 µM; in test [15], 64.2 µM.
In the case of `CCOC(=O)CCC(NC(=O)c1ccc(N2CCN(c3c(C)nc(N)nc3N)CC2)cc1)C(=O)OCC` (centres undefined), the TGI in test [1] is over 100 µM; in test [16], 4.9 µM; in [2] it was over 100 µM; in test [3], over 100 µM; in test [4], over 100 µM; in test [5] it was over 100 µM. For the same compound, the TGI in test [6] is over 48.1 µM; in test [7], 96.9 µM; in [8], over 100 µM; in test [9], over 100 µM; in test [11] it was 19.6 µM; in test [12] it was over 100 µM. Moreover, the TGI in test [13] is over 24.7 µM; in test [15], over 100 µM.
Consider `O=[N+]([O-])c1cccnc1NCC1(CO)CC(Cc2ccccc2)C1` (centres undefined), for which the TGI in test [1], in test [16], in test [2], in test [3], in test [4] and in test [5] was over 100 µM throughout. The TGI in test [6], in test [7], in test [8], in test [9], in [10] and in test [11] was over 100 µM each time. Moreover, the TGI in test [12], in test [14] and in [15] was over 100 µM in each case.
For the compound `CC(C)CCn1c(=O)c2c(=O)[nH][nH]c2c2ccccc21`, the TGI in test [1], in [16], in [2], in [3], in test [4] and in test [5] was over 100 µM in each case. Besides, the TGI in [6], in test [7], in [8], in [9], in test [11] and in test [12] was over 100 µM each time. Moreover, the TGI in [13], in test [14] and in test [15] was over 100 µM in each case.
Turning to `Cc1cn(Cc2ccccc2CCl)c(=O)[nH]c1=O`, the TGI is 30.2 µM in [1]; over 100 µM in test [16]; 17.9 µM in test [2]; 35.3 µM in [3]; 13.9 µM in test [4]; 19 µM in [5]. The TGI in test [6] is 29 µM; in test [7], 44.3 µM; in test [8], over 100 µM; in test [9] it was 43.4 µM; in test [10] it was 23.9 µM; in test [11], 20.7 µM. Moreover, the TGI was found to be 32.7 µM in test [12], 25.9 µM in test [13] and 33.8 µM in test [15].
Take `C[C@H](O)C1CC(Cn2nnc3c(N)ncnc32)C1(C)C` (some centres undefined): the TGI in test [1], in test [16], in test [2], in [3], in [5] and in [6] was over 100 µM each time. In addition, the TGI in test [8], in [9], in test [10], in [11], in [12] and in test [13] was over 100 µM throughout. The TGI in [15] is over 100 µM.
For `CC(=O)Nc1ccc2[nH]c(-c3cccc(F)c3)cc(=O)c2c1`, the TGI in [1] was over 100 µM; in test [16], over 100 µM; in test [3], over 48.4 µM; in [4], over 100 µM; in test [5], over 100 µM; in [6], 3.85 µM. Further, the TGI in [7] was over 100 µM; in [8], over 29.5 µM; in [9], over 100 µM; in [11], 27.8 µM; in [12], over 100 µM; in test [13], over 100 µM. The TGI in [14] and in test [15] was over 100 µM throughout.
On to `CC1(C)Oc2ccc3c(=O)cc(-c4ccc(F)cc4)oc3c2C1C(=O)O` (centres undefined), for which the TGI in test [1], in test [16], in test [2], in test [3], in test [4] and in test [5] was over 100 µM each time. In addition, the TGI in test [6], in test [9], in [10], in test [11], in [12] and in test [14] was over 100 µM in each case. Also, the TGI in [15] was over 100 µM.
With `O=c1[nH]nc(Cc2ccccc2)n1Nc1ccccc1`, the TGI in test [1], in test [16], in [2], in test [3], in test [4] and in [5] was over 100 µM in each case. The TGI in test [6], in test [7], in [8], in test [9], in test [11] and in [12] was over 100 µM in each case. Moreover, the TGI in test [14] and in test [15] was over 100 µM each time.
Turning to `C1=C\CCCCN2C[C@H]3CCCC/C=C\CCCCN4CC[C@@H]([C@H](CCCCCC/1)C4)[C@H](C3)C2`, the TGI in [1] came to 3.16 µM; in test [2], 4.41 µM; in [3] it was 5 µM; in test [4], 11.3 µM; in test [5], 4.5 µM; in test [6], 3.8 µM. Further, the TGI in test [7] was found to be 3.68 µM; in test [8], 6.11 µM; in [9], 21.4 µM; in test [10] it was 2.99 µM; in test [11] it was 3.12 µM; in [12], 22.9 µM. Moreover, the TGI in test [13] is 5.3 µM; in test [14], over 19.8 µM; in test [15] it was 5.8 µM.
`c1cc2c(c(-c3c4ccccc4nc4ccccc34)c1)CC1(CC2)OCCO1`: the TGI in [1], in [2], in test [3], in [4], in test [5] and in test [6] was over 100 µM in each case. Also, the TGI in test [7], in test [8], in test [9], in test [10], in test [11] and in [12] was over 100 µM in each case. Also, the TGI in test [13] and in test [15] was over 100 µM in each case.
`N#Cc1ccc(OCc2nc3cc(C(F)(F)F)ccc3nc2-c2ccccc2)cc1`: the TGI in [1], in test [16], in test [2], in test [3], in test [4] and in test [5] was over 100 µM throughout. The TGI in [6], in [7], in test [8], in test [9], in [11] and in test [12] was over 100 µM in each case. Further, the TGI in test [13], in test [14] and in [15] was over 100 µM each time.
Take `CCOc1cc(NC(C)=O)ccc1C(=O)NN1C(=O)/C(=C/c2cc(OC)c(OC)c(OC)c2)N=C1c1ccccc1`: the TGI in test [1], in [16], in test [2], in [4], in [5] and in test [6] was over 100 µM throughout. The TGI in test [7], in test [8], in test [9], in test [11], in test [12] and in test [13] was over 100 µM in each case. In test [14], this compound yielded a TGI of over 100 µM.
`CCCCOC(=O)C(O)Cc1ccoc1` (centres undefined): the TGI in test [1], in test [16], in test [2], in test [3], in [4] and in test [5] was over 100 µM in each case. For the same compound, the TGI in test [6], in test [7], in [8], in [9], in test [10] and in [11] was over 100 µM in each case. The TGI in test [12], in test [13] and in test [15] was over 100 µM throughout.
In the case of `Cc1ccc2c(n1)C(=O)c1ccccc1C2=O`, the TGI in test [1] was over 100 µM; in [16], over 100 µM; in test [2] it was 61.8 µM; in [3], over 85.4 µM; in test [4] it was 73.4 µM; in test [5], 38.8 µM. Also, the TGI was 32.6 µM in test [6]; over 69 µM in test [7]; 55.4 µM in test [8]; over 56.5 µM in test [9]; 87.2 µM in test [10]; 19.7 µM in [11]. Further, the TGI in [12] was over 88.2 µM; in test [13], over 87.9 µM; in test [15], over 100 µM.
On to `COc1cc2c(cc1OC)CC(N=[N+]=[N-])c1cc(OC)c(OC)cc1/C=C\2` (centres undefined), for which the TGI in [1], in [2], in test [3], in test [4], in [5] and in test [6] was over 100 µM in each case. Also, the TGI is over 100 µM in test [7]; over 100 µM in [8]; over 100 µM in test [9]; 63.1 µM in [11]; over 100 µM in test [12]; over 100 µM in [13]. Further, the TGI in test [14] and in test [15] was over 100 µM each time.
For `COc1ccc2c(c1)c1c(n2CCN2CCCCC2)-c2ccccc2CC1`, the TGI amounted to 34.5 µM in test [1]; 47.4 µM in test [16]; 31 µM in test [2]; 34.7 µM in test [3]; 30.3 µM in test [4]; 30.2 µM in test [5]. Besides, the TGI was found to be 38.3 µM in test [6]; 28.3 µM in test [7]; 42 µM in test [8]; 31.2 µM in [9]; 37.3 µM in test [11]; 33.5 µM in [12]. The TGI in test [13] came to 46.9 µM; in [14], 42.4 µM; in [15] it was 27.6 µM.
For the compound `N#CC1(C#N)NC(c2ccsc2)C(C#N)(C#N)NC1c1ccsc1` (centres undefined), the TGI in test [1], in [16], in [2], in [3], in [4] and in test [5] was over 100 µM throughout. Moreover, the TGI in [6], in [7], in test [8], in test [9], in test [11] and in [12] was over 100 µM throughout. In addition, the TGI in [13], in [14] and in test [15] was over 100 µM throughout.
For the compound `COC(=O)/N=[N+](\[O-])C(c1ccc(OC)cc1)C1CCCCC1` (centres undefined), the TGI in test [1] is 32.4 µM; in [16] it was 20.6 µM; in test [2], 4.41 µM; in [3], 16.9 µM; in test [4] it was over 100 µM; in [5] it was over 100 µM. Further, the TGI is 26.4 µM in test [6]; 7.98 µM in [7]; over 100 µM in test [8]; 11.9 µM in [9]; 28.3 µM in test [10]; over 41.4 µM in [11]. Further, the TGI in [12] is 11.3 µM; in test [13], over 54.2 µM; in test [15], 25.9 µM.

The values above are taken from PubChem BioAssay (NCI).
